The results in this text go back to ChEMBL document CHEMBL1157222, “Anxiolytic effect of natural galphimines from Galphimia glauca and their chemical derivatives” (2006).

Activity calls are given as the source filed them. No cut-off for these calls is given here.

In assay [1] the test system is Mus musculus. Briefly: Anxiolytic effect in ICR mouse assessed as increase in time spent on open arm at 15 mg/kg, ip administered 1 hr before by elevated plus-maze test. The conditions noted are these: route intraperitoneal. In kind it is functional.
Assay [2] deals with Mus musculus. Put plainly: Anxiolytic effect in ICR mouse assessed as increase in number of entries on open arm at 15 mg/kg, ip administered 1 hr before by elevated plus-maze test. The class given is functional. The conditions noted are these: route intraperitoneal.
Assay [3] relates to Mus musculus. Briefly: Anxiolytic effect in ICR mouse assessed as increase in time spent on open arm at 1.0 mg/kg, ip administered 1 hr before by elevated plus-maze test. In kind it is functional, organism-based. Further details: dose 1 mg/kg.
Assay [4] deals with Mus musculus. Put plainly: Anxiolytic effect in ICR mouse assessed as increase in entries of open arm at 1.0 mg/kg, ip administered 1 hr before by elevated plus-maze test. The arrangement: dose 1 mg/kg. In kind it is functional, organism-based.
In assay [5] the test system is Mus musculus. Briefly: Anxiolytic effect in ICR mouse assessed as […] in time spent on open arm at 2.0 mg/kg, ip administered 1 hr before by elevated plus-maze test. In kind it is functional, organism-based. Further details: dose 2 mg/kg.
The test system of assay [6] is Mus musculus. Put plainly: Anxiolytic effect in ICR mouse assessed as […] in entries of open arm at 2.0 mg/kg, ip administered 1 hr before by elevated plus-maze test. The class given is functional, organism-based. Further details: dose 2 mg/kg.

Take `COC(=O)CC[C@H]1[C@]2(C)CC[C@@]3(C(=O)OC)[C@]4(O)CC(C)=CC[C@]4(C)CC[C@]3(C)[C@H]2[C@H](O)[C@H](O)[C@]1(CO)[C@@H](C)O`: the Activity is on record as 76.8% in the assay with Mus musculus [1] and 61.8% in the assay on Mus musculus [2].

In the case of `COC(=O)[C@@]12CC[C@@]3(C)[C@@H]4C=CC(=O)OC[C@]4([C@@H](C)O)C[C@@H](O)[C@@H]3[C@@]1(C)CC[C@@]1(C)CC=C(C)C[C@]12O` [GALPHIMINE B], the Activity in the assay with Mus musculus [1] is listed as 76.3%; in the assay on Mus musculus [2], 72.5%.

Consider `CN1C(=O)CN=C(c2ccccc2)c2cc(Cl)ccc21`, for which the result with Mus musculus [3] and in the assay with Mus musculus [4] was Active.

With `C=C(C)[C@@H]1[C@H]2OC(=O)[C@@H]1[C@]1(O)C[C@H]3OC34C(=O)O[C@H]2[C@@]41C.CC(C)(O)[C@@H]1[C@H]2OC(=O)[C@@H]1[C@]1(O)C[C@H]3OC34C(=O)O[C@H]2[C@@]41C` (stereo not given in full), the outcome in the assay with Mus musculus [5] and in the assay with Mus musculus [6] was Active.

Consider `COC(=O)[C@@]12CC[C@@]3(C)[C@@H]4C=CC(=O)OC[C@]4([C@@H](C)O)[C@@H](O)[C@@H](O)[C@@H]3[C@@]1(C)CC[C@@]1(C)CC=C(C)C[C@]12O` [GALPHIMINE A], for which the Activity in the assay on Mus musculus [1] was determined as 68.3%; in the assay on Mus musculus [2], 76.8%.
